Source: patent publication US10745346B2, “Agonists of protein tyrosine phosphatase SHP-1” (priority 2015, dated 2020)

Experiments:
[1] = tested on: PLC5 cells (a hepatocellular carcinoma cell line); assay: Cytotoxicity, MTT cell viability assay; format: cell-based; details: 72 h exposure
Procedure: PLC5 cells (a hepatocellular carcinoma cell line) were seeded at 5×10^3 cells per well in 96-well plates. Then, cells were exposed to SC derivatives at the indicated doses for 72 h. After that, cells were incubated with MTT (1 mg/ml) (Sigma-Aldrich, St. Louis, Mo.) for 2 h at 37° C. Cell viability was then assessed by measuring the absorbance at 570 nm using a microplate reader.

[2] = molecular target: Recombinant SHP-1 protein (Homo sapiens, UniProt P29350); assay: SHP-1 phosphatase activity assay (RediPlate 96 EnzChek Tyrosine Phosphatase Assay kit); format: biochemical; details: SC derivatives at 1 μM for 2 hr; recombinant SHP-1 25 ng; control DMSO = 100; mean±SD (N=3)
Sequence of Recombinant SHP-1 protein (P29350 whole entry): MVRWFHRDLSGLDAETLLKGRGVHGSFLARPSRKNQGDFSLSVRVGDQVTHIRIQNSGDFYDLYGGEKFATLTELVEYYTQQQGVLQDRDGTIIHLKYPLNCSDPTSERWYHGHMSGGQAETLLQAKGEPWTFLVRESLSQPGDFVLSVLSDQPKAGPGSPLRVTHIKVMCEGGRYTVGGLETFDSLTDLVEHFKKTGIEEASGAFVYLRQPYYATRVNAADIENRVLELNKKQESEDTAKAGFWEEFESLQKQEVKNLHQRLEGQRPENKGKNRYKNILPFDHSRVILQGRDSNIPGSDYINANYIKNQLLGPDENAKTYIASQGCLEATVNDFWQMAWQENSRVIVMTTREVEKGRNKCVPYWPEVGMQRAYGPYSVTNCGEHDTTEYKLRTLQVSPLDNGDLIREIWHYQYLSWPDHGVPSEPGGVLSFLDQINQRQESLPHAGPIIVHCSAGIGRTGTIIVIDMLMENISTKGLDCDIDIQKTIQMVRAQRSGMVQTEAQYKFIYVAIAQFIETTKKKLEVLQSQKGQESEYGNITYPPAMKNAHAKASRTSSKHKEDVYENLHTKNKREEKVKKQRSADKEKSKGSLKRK
Procedure: Effects of SC Derivatives on Phosphatase Activity in Recombinant SHP-1 RediPlate 96 EnzChek Tyrosine Phosphatase Assay kit (R-22067) was used for SHP-1 activity assay (Molecular Probes). Recombinant SHP-1 protein (25 ng) was reacted with SC derivatives at 1 μM for 2 hr. Then the SHP-1 phosphatase activity assay was performed according to the user's manual and the absorbance was measured at 465 nm. The control group was DMSO, which functioned as the solvent of the SC derivatives. The values were expressed by mean±SD (N=3).

SHP-1 Activity (% of control) [2]	SMILES	IC50 [1] [nM]
180.35 ± 35 % of control	N#Cc1ccc(Oc2cc(NC(=O)Nc3ccc(F)c(C(F)(F)F)c3)ccc2Cl)cc1 [compound 137, 1-(4-chloro-3-(4-cyanophenoxy)phenyl)-3-(4-fluoro-3-(trifluoromethyl)phenyl)urea]	490
363.95 ± 18.11 % of control	N#Cc1ccc(Oc2cc(NC(=O)Nc3cc(C(F)(F)F)cc(C(F)(F)F)c3)ccc2Cl)cc1 [compound 148, 1-(3,5-bis(trifluoromethyl)phenyl)-3-(4-chloro-3-(4-cyanophenoxy)phenyl) urea]	220
114.65 ± 13.55 % of control	Cc1ccc(NC(=O)Nc2ccc(C)c(Oc3ccc(/C(N)=N/O)cc3)c2)cc1Oc1ccc(/C(N)=N/O)cc1 [compound 94, (1Z,1′Z)-4,4′-(((carbonylbis(azanediyl))bis(2-methyl-5,1-phenylene))bis(oxy))bis(N′-hydroxybenzimidamide)]	> 10000
99.86 ± 3.65 % of control	Cc1ccc(NC(=O)Nc2ccc(C)c(Oc3ccc(C#N)nc3)c2)cc1Oc1ccc(C#N)cc1 [compound 99, 1-(3-(4-cyanophenoxy)-4-methylphenyl)-3-(3-((6-cyanopyridin-3-yl)oxy)-4-methylphenyl)urea]	180
98.04 ± 8.80 % of control	N#Cc1ccc(Oc2ccc3c(c2)N(C(=O)Nc2cccc(C(F)(F)F)c2)CCO3)cc1 [compound 159, 6-(4-cyanophenoxy)-N-(3-(trifluoromethyl)phenyl)-2H-benzo[b][1,4]oxazine-4(3H)-carboxamide]	2560
115.12 ± 3.84 % of control	N#Cc1ccc(Oc2cc(NC(=O)Nc3ccc(F)c(C(F)(F)F)c3)ccc2F)cc1 [compound 154, 1-(3-(4-cyanophenoxy)-4-fluorophenyl)-3-(4-fluoro-3-(trifluoromethyl)phenyl)urea]	620
94.05 ± 16.11 % of control	N#Cc1ccc(Oc2cccc(NC(=O)C3(C(=O)Nc4cccc(Oc5ccc(C#N)cc5)c4)CC3)c2)cc1 [compound 67, N, N′-bis(3-(4-cyanophenoxy)phenyl)cyclopropane-1,1-dicarboxamide]	> 10000
147.25 ± 78.63 % of control	N#CCc1ccc(Oc2ccc(NC(=O)Nc3ccc(F)c(C(F)(F)F)c3)cc2)cc1 [compound 168, 1-(4-(4-(cyanomethyl)phenoxy)phenyl)-3-(4-fluoro-3-(trifluoromethyl)phenyl)urea]	1070
110.50 ± 6.08 % of control	N#Cc1ccc(Oc2cc(NC(=O)Nc3cc(C(F)(F)F)cc(C(F)(F)F)c3)ccc2Cl)cn1 [compound 182, 1-(3,5-bis(trifluoromethyl)phenyl)-3-(4-chloro-3-((6-cyanopyridin-3-yl)oxy)phenyl)urea]	560
81.06 ± 7.61 % of control	Cc1ccc(NC(=O)Nc2ccc(C)c(Oc3ccc(C#N)nc3)c2)cc1Oc1ccc(C#N)nc1 [compound 86, 1,3-bis(3-((6-cyanopyridin-3-yl)oxy)-4-methylphenyl)urea]	> 10000
88.80 ± 14.30 % of control	Cc1cc(Oc2cc(NC(=O)Nc3ccc(C)c(Oc4ccc(C#N)c(C)c4)c3)ccc2C)ccc1C#N [compound 98, 1,3-bis(3-(4-cyano-3-methylphenoxy)-4-methylphenyl)urea]	140
149.03 ± 14.47 % of control	Cc1ccc(NC(=O)Nc2cccc3ccc(Oc4ccc(C#N)cc4)cc23)cc1Oc1ccc(C#N)cc1 [compound 107, 1-(3-(4-cyanophenoxy)-4-methylphenyl)-3-(7-(4-cyanophenoxy)naphthalen-1-yl)urea]	> 10000
135.54 ± 5.11 % of control	N#CCc1ccc(NC(=O)Nc2ccc(F)c(Oc3ccc(C#N)cc3)c2)cc1 [compound 153, 1-(4-(cyanomethyl)phenyl)-3-(3-(4-cyanophenoxy)-4-fluorophenyl)urea]	1830
91.42 ± 10.47 % of control	Cc1ccc(NC(=O)Nc2ccc(C)c(Oc3ccc(C#N)cc3F)c2)cc1Oc1ccc(C#N)cc1F [compound 85, 1,3-bis(3-(4-cyano-2-fluorophenoxy)-4-methylphenyl)urea]	> 10000
168.15 ± 1.97 % of control	N#Cc1ccc(Oc2ccc(F)c(NC(=O)Nc3ccc(F)c(C(F)(F)F)c3)c2)cc1 [compound 145, 1-(5-(4-cyanophenoxy)-2-fluorophenyl)-3-(4-fluoro-3-(trifluoromethyl)phenyl)urea]	850
112.47 ± 7.98 % of control	N#Cc1ccc(Oc2ccc3c(c2)N(C(=O)Nc2ccc(F)c(C(F)(F)F)c2)CCO3)cc1 [compound 156, 6-(4-cyanophenoxy)-N-(4-fluoro-3-(trifluoromethyl)phenyl)-2H-benzo[b][1,4]oxazine-4(3H)-carboxamide]	1870
87.54 ± 10.21 % of control	CC1=CCC(NC(=O)C(=O)Nc2ccc(C)c(Oc3ccc(C#N)cc3)c2)C=C1OC1C=CC(C#N)=CC1 (stereo not drawn) [compound 71, N^1-(3-((4-cyanocyclohexa-2,4-dien-1-yl)oxy)-4-methylcyclohexa-2,4-dien-1-yl)-N^2-(3-(4-cyanophenoxy)-4-methylphenyl)oxalamide]	210
127.01 ± 9.02 % of control	N#Cc1ccc(Oc2ccc(F)c(NC(=O)Nc3cc(Oc4ccc(C#N)cc4)ccc3F)c2)cc1 [compound 97, 1,3-bis(5-(4-cyanophenoxy)-2-fluorophenyl)urea]	> 10000
424.63 ± 10.66 % of control	N#Cc1ccc(Oc2ccc(F)c(NC(=O)Nc3ccc(Cl)c(C(F)(F)F)c3)c2)cc1 [compound 105, 1-(4-chloro-3-(trifluoromethyl)phenyl)-3-(5-(4-cyanophenoxy)-2-fluorophenyl)urea]	470
103.52 ± 1.13 % of control	Cc1cc(Oc2cc(NC(=O)Nc3ccc(F)c(C(F)(F)F)c3)ccc2Cl)ccc1C#N [compound 177, 1-(4-chloro-3-(4-cyano-3-methylphenoxy)phenyl)-3-(4-fluoro-3-(trifluoromethyl)phenyl)urea]	> 10000
159.94 ± 30.14 % of control	C#Cc1cccc(NC(=O)Nc2cc(Oc3ccc(C#N)cc3)ccc2F)c1 [compound 144, 1-(5-(4-cyanophenoxy)-2-fluorophenyl)-3-(3-ethynylphenyl)urea]	1790
336.99 ± 50.76 % of control	N#Cc1ccc(Oc2cc(NC(=O)Nc3cc(C(F)(F)F)cc(C(F)(F)F)c3)ccc2F)cc1 [compound 152, 1-(3,5-bis(trifluoromethyl)phenyl)-3-(3-(4-cyanophenoxy)-4-fluorophenyl) urea]	340
140.90 ± 6.65 % of control	N#CCc1ccc(NC(=O)Nc2ccc(Cl)c(Oc3ccc(C#N)cc3)c2)cc1 [compound 149, 1-(4-chloro-3-(4-cyanophenoxy)phenyl)-3-(4-(cyanomethyl)phenyl)urea]	1380
83.70 ± 10.90 % of control	N#Cc1ccc(Oc2ccc3c(c2)OCCN3C(=O)Nc2cc(C(F)(F)F)cc(C(F)(F)F)c2)cc1 [compound 164, N-(3,5-bis(trifluoromethyl)phenyl)-7-(4-cyanophenoxy)-2H-benzo[b][1,4]oxazine-4(3H)-carboxamide]	> 10000
140.46 ± 12.56 % of control	Cc1cc(Oc2cc(NC(=O)Nc3ccc(C)c(Oc4ccc(C#N)nc4)c3)ccc2C)ccc1C#N [compound 102, 1-(3-(4-cyano-3-methylphenoxy)-4-methylphenyl)-3-(3-((6-cyanopyridin-3-yl)oxy)-4-methylphenyl)urea]	160
95.16 ± 6.91 % of control	N#Cc1ccc(Oc2cccc(NC(=O)C(=O)Nc3ccc(Cl)c(C(F)(F)F)c3)c2)cc1 [compound 69, N^1-(4-chloro-3-(trifluoromethyl)phenyl)-N^2-(3-(4-cyanophenoxy)phenyl) oxalamide]	> 10000
264.67 ± 32.11 % of control	Cc1ccc(NC(=O)Nc2ccc(Cl)c(C(F)(F)F)c2)cc1Oc1ccc(C#N)nc1 [compound 87, 1-(4-chloro-3-(trifluoromethyl)phenyl)-3-(3-((6-cyanopyridin-3-yl)oxy)-4-methylphenyl)urea]	970
131.47 ± 14.99 % of control	N#Cc1ccc(Oc2ccc3cccc(NC(=O)Nc4ccc(Cl)c(C(F)(F)F)c4)c3c2)cc1 [compound 72, 1-(4-chloro-3-(trifluoromethyl)phenyl)-3-(7-(4-cyanophenoxy)naphthalen-1-yl)urea]	2250
110.68 ± 13.38 % of control	Cc1ccc(NC(=O)Nc2ccc(C)c(Oc3ccc(C#N)c(Br)c3)c2)cc1Oc1ccc(C#N)c(Br)c1 [compound 83, 1,3-bis(3-(3-bromo-4-cyanophenoxy)-4-methylphenyl)urea]	250
101.42 ± 7.86 % of control	C#Cc1cccc(NC(=O)Nc2ccc(Oc3ccc(CC#N)cc3)cc2)c1 [compound 170, 1-(4-(4-(cyanomethyl)phenoxy)phenyl)-3-(3-ethynylphenyl)urea]	> 10000
